Article PMC6009853, “Inhibition studies on a panel of human carbonic anhydrases with N1-substituted secondary sulfonamides incorporating thiazolinone or imidazolone-indole tails” (Journal of Enzyme Inhibition and Medicinal Chemistry, 2018)
Like-named read-outs stand apart in the source and are kept apart here.

Columns and labels:
[1] = biological target: T1, hCA IV (Homo sapiens, UniProt P22748); assay: stopped-flow CO2 hydrase assay; format: biochemical
T1 construct: gene CA4; recombinant, obtained in-house; membrane-associated isoform

[2] = biological target: T2, hCA IX (Homo sapiens, UniProt Q16790); assay: stopped-flow CO2 hydrase assay; format: biochemical
T2 construct: gene CA9; recombinant, obtained in-house; tumour-associated isoform
Text: stopped-flow CO2 hydrase assay on hCA IX

[3] = biological target: T3, hCA II (Homo sapiens, UniProt P00918); assay: stopped-flow CO2 hydrase assay; format: biochemical
T3 construct: gene CA2; recombinant, obtained in-house
Text: stopped-flow CO2 hydrase assay on hCA II

[4] = biological target: T4, hCA I (Homo sapiens, UniProt P00915); assay: stopped-flow CO2 hydrase assay; format: biochemical
T4 construct: gene CA1; recombinant, obtained in-house; cytosolic
Text: stopped-flow CO2 hydrase assay on hCA I

[5] = biological target: T2, hCA IX; assay: stopped-flow CO2 hydrase assay; format: biochemical; details: read-out: hCA I
[6] = stopped-flow CO2 hydrase assay; format: biochemical, Homo sapiens; details: read-out: hCA I

T1 sequence (P22748 19-284): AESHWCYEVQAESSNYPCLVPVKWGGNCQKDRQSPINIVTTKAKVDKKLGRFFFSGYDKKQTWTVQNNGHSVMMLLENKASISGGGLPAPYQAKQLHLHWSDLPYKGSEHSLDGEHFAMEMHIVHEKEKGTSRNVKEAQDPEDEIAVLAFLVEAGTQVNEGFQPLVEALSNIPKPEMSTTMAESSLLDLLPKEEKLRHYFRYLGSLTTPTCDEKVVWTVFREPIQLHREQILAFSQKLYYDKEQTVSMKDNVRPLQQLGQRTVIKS
T4 sequence (P00915 2-261): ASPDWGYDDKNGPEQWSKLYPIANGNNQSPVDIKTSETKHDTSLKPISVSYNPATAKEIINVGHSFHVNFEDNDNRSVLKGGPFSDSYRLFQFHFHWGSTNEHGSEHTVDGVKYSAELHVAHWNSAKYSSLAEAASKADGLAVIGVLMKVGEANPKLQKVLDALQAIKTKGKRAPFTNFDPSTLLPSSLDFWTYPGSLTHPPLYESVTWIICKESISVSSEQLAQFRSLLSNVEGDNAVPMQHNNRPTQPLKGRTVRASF

Compound | Ki ([1]; read-out: hCA IV) [µM] | Ki [2] [µM] | Ki [3] [µM] | Ki [4] [µM] | Ki ([1]; read-out: hCA II) [µM] | Ki [5] [µM] | Ki [6] [µM]
NS(=O)(=O)c1ccc(N=Cc2c[nH]c3ccccc23)cc1 [4a, 4-{[(1H-indol-3-yl)methylene]amino}benzenesulfonamide] | 2.74 | 0.327 | 0.576 | 0.0885 | – | – | –
CC(=O)NS(=O)(=O)c1ccc(N=Cc2c[nH]c3ccccc23)cc1 [4b, N-{[4-(((1H-indol-3-yl)methylene)amino)phenyl]sulfonyl}acetamide] | – | 1.62 | > 10 | 8.58 | > 10 | – | –
O=S(=O)(Nc1ncccn1)c1ccc(N=Cc2c[nH]c3ccccc23)cc1 [4c] | > 10 | – | – | > 10 | – | > 10 | > 10
O=S(=O)(Nc1ccccn1)c1ccc(N=Cc2c[nH]c3ccccc23)cc1 [4d] | > 10 | – | – | > 10 | – | > 10 | > 10
O=S(=O)(Nc1nccs1)c1ccc(N=Cc2c[nH]c3ccccc23)cc1 [4e] | > 10 | – | – | > 10 | – | > 10 | > 10
N=C(N)NS(=O)(=O)c1ccc(N=Cc2c[nH]c3ccccc23)cc1 [4f, 4-{[(1H-indol-3-yl)methylene]amino}-N-carbamimidoylbenzenesulfonamide] | > 10 | 1.31 | 8.29 | 7.53 | – | – | –
NS(=O)(=O)c1ccc(NC2=NC(=O)C(=Cc3c[nH]c4ccccc34)S2)cc1 [7a, 4-{[5-((1H-indol-3-yl)methylene)-4-oxo-4,5-dihydrothiazol-2-yl]amino}benzenesulfonamide] | 4.43 | 0.308 | 0.0764 | 0.0964 | – | – | –
CC(=O)NS(=O)(=O)c1ccc(NC2=NC(=O)C(=Cc3c[nH]c4ccccc34)S2)cc1 [7b, N-{[4-((5-((1H-indol-3-yl)methylene)-4-oxo-4,5-dihydrothiazol-2-yl)amino)phenyl]sulfonyl} acetamide] | – | 0.778 | > 10 | 7.98 | > 10 | – | –
O=C1N=C(Nc2ccc(S(=O)(=O)Nc3ncccn3)cc2)SC1=Cc1c[nH]c2ccccc12 [7c] | > 10 | – | – | > 10 | – | > 10 | > 10
O=C1N=C(Nc2ccc(S(=O)(=O)Nc3ccccn3)cc2)SC1=Cc1c[nH]c2ccccc12 [7d] | > 10 | – | – | > 10 | – | > 10 | > 10
O=C1N=C(Nc2ccc(S(=O)(=O)Nc3nccs3)cc2)SC1=Cc1c[nH]c2ccccc12 [7e, 4-{[(5-((1H-indol-3-yl)methylene)-4-oxo-4,5-dihydrothiazol-2-yl)amino]-N-(thiazol-2-yl)] benzenesulfonamide] | > 10 | – | – | > 10 | – | > 10 | > 10
N=C(N)NS(=O)(=O)c1ccc(NC2=NC(=O)C(=Cc3c[nH]c4ccccc34)S2)cc1 [7f, 4-{[5-((1H-indol-3-yl)methylene)-4-oxo-4,5-dihydrothiazol-2-yl]amino}-N-carbamimidoyl benzenesulfonamide] | > 10 | 1.4 | 7.18 | 9.07 | – | – | –
CC(=O)n1cc(C=C2N=C(c3ccccc3)N(c3ccc(S(N)(=O)=O)cc3)C2=O)c2ccccc21 [10a, 4-[4-((1-Acetyl-1H-indol-3-yl)methylene)-5-oxo-2-phenyl-4,5-dihydro-1H-imidazol-1-yl]benzenesulfonamide] | 0.263 | 0.318 | – | – | – | – | –
CC(=O)NS(=O)(=O)c1ccc(N2C(=O)C(=Cc3cn(C(C)=O)c4ccccc34)N=C2c2ccccc2)cc1 [10b, N-[(4–(4-((1-acetyl-1H-indol-3-yl)methylene)-5-oxo-2-phenyl-4,5-dihydro-1H-imidazol-1-yl)phenyl)sulfonyl]acetamide] | > 10 | 1.47 | – | – | – | – | –
CC(=O)n1cc(C=C2N=C(c3ccccc3)N(c3ccc(S(=O)(=O)Nc4ncccn4)cc3)C2=O)c2ccccc21 [10c, 4-[4-((1-Acetyl-1H-indol-3-yl)methylene)-5-oxo-2-phenyl-4,5-dihydro-1H-imidazol-1-yl]-N-(pyrimidin-2-yl)benzenesulfonamide] | > 10 | – | – | > 10 | – | > 10 | > 10
CC(=O)n1cc(C=C2N=C(c3ccccc3)N(c3ccc(S(=O)(=O)Nc4ccccn4)cc3)C2=O)c2ccccc21 [10d] | > 10 | – | – | > 10 | – | > 10 | > 10
CC(=O)n1cc(C=C2N=C(c3ccccc3)N(c3ccc(S(=O)(=O)Nc4nccs4)cc3)C2=O)c2ccccc21 [10e, 4-[4-((1-Acetyl-1H-indol-3-yl)methylene)-5-oxo-2-phenyl-4,5-dihydro-1H-imidazol-1-yl]-N-(thiazol-2-yl)benzenesulfonamide] | > 10 | – | – | > 10 | – | > 10 | > 10
CC(=O)n1cc(C=C2N=C(c3ccccc3)N(c3ccc(S(=O)(=O)N=C(N)N)cc3)C2=O)c2ccccc21 [10f, 4-[4-((1-Acetyl-1H-indol-3-yl)methylene)-5-oxo-2-phenyl-4,5-dihydro-1H-imidazol-1-yl]-N-carbamimidoylbenzenesulfonamide] | > 10 | 1.64 | 3.82 | 5.76 | – | – | –
COc1ccc(C2=NC(=Cc3cn(C(C)=O)c4ccccc34)C(=O)N2c2ccc(S(N)(=O)=O)cc2)cc1 [10g, 4-[4-((1-Acetyl-1H-indol-3-yl)methylene)-2–(4-methoxyphenyl)-5-oxo-4,5-dihydro-1H-imidazol-1-yl]benzenesulfonamide] | 2.77 | 0.328 | 0.602 | 0.0937 | – | – | –
COc1ccc(C2=NC(=Cc3cn(C(C)=O)c4ccccc34)C(=O)N2c2ccc(S(=O)(=O)NC(C)=O)cc2)cc1 [10h, N-[(4–(4-((1-acetyl-1H-indol-3-yl)methylene)-2–(4-methoxyphenyl)-5-oxo-4,5-dihydro-1H-imidazol-1-yl)phenyl)sulfonyl]acetamide] | 3.05 | 1.4 | 0.549 | 5.72 | – | – | –
COc1ccc(C2=NC(=Cc3cn(C(C)=O)c4ccccc34)C(=O)N2c2ccc(S(=O)(=O)Nc3ncccn3)cc2)cc1 [10i, 4-[4-((1-Acetyl-1H-indol-3-yl)methylene)-2–(4-methoxyphenyl)-5-oxo-4,5-dihydro-1H-imidazol-1-yl]-N-(pyrimidin-2-yl)benzenesulfonamide] | > 10 | – | – | > 10 | – | > 10 | > 10
COc1ccc(C2=NC(=Cc3cn(C(C)=O)c4ccccc34)C(=O)N2c2ccc(S(=O)(=O)Nc3ccccn3)cc2)cc1 [10j, 4-[4-((1-Acetyl-1H-indol-3-yl)methylene)-2–(4-methoxyphenyl)-5-oxo-4,5-dihydro-1H-imidazol-1-yl]-N-(pyridin-2-yl)benzenesulfonamide] | > 10 | – | – | > 10 | – | > 10 | > 10
COc1ccc(C2=NC(=Cc3cn(C(C)=O)c4ccccc34)C(=O)N2c2ccc(S(=O)(=O)Nc3nccs3)cc2)cc1 [10k, 4-[4-((1-Acetyl-1H-indol-3-yl)methylene)-2–(4-methoxyphenyl)-5-oxo-4,5-dihydro-1H-imidazol-1-yl]-N-(thiazol-2-yl)benzenesulfonamide] | > 10 | – | – | > 10 | – | > 10 | > 10
COc1ccc(C2=NC(=Cc3cn(C(C)=O)c4ccccc34)C(=O)N2c2ccc(S(=O)(=O)NC(=N)N)cc2)cc1 [10l, 4-[4-((1-Acetyl-1H-indol-3-yl)methylene)-2–(4-methoxyphenyl)-5-oxo-4,5-dihydro-1H-imidazol-1-yl]-N-carbamimidoylbenzenesulfonamide] | – | 1.21 | > 10 | 6.9 | > 10 | – | –
